Drawing on ChEMBL document CHEMBL5126544, “Recent results from non-basic glycosidase inhibitors: How structural diversity can inform general strategies for improving inhibition potency” (Eur J Med Chem, 2022), this text covers IC50 and inhibition for nine compounds.

Values after ≈ are worked out from the molar mass of the structure shown.

The nature of data set [1]: Inhibition of mammalian alpha-amylase using starch as substrate. Also on record: species or system Mammalia.
Data set [2] is described as follows: Inhibition of alpha-amyloglucosidase (unknown origin) assessed as reduction in conversion of starch to glucose using starch as substrate preincubated with substrate for 20 mins followed by enzyme addition and measured after 30 mins.
A short description of data set [3]: Inhibition of alpha-glucosidase (unknown origin) using PNP glycoside as substrate preincubated for 30 mins followed by substrate addition and measured after 60 mins by spectrophotometric analysis.
Another data set has as its system Saccharomyces cerevisiae. In words: Inhibition of baker's yeast alpha-glucosidase at 1 uM using p-nitrophenyl-alpha-D-glucopyranoside as substrate preincubated for 30 mins followed by substrate addition and measured after 5 mins relative to control. As to conditions: time 35.0 min.
Data set [4] is described as follows: Inhibition of rat intestinal isomaltase preincubated for 10 mins followed by substrate addition.
A short description of data set [5]: Inhibition of rat intestinal gluco-amylase preincubated for 10 mins followed by substrate addition.
The nature of data set [6]: Inhibition of rat intestinal maltase preincubated for 10 mins followed by substrate addition.
The nature of data set [7]: Inhibition of baker's yeast sucrase preincubated for 10 mins followed by substrate addition. Further details: species or system Saccharomyces cerevisiae.
A short description of data set [8]: Inhibition of rat intestinal lactase preincubated for 10 mins followed by substrate addition.
Data set [9] in a line: Inhibition of rat intestinal sucrase preincubated for 10 mins followed by substrate addition.
Data set [10] is described as follows: Inhibition of Aspergillus niger maltase preincubated for 10 mins followed by substrate addition.
Data set [11] is described as follows: Inhibition of rat intestinal trehalase preincubated for 10 mins followed by substrate addition.
The nature of data set [12]: Inhibition of yeast alpha-glucosidase using p-nitrophenyl-alpha-D-glucopyranoside as substrate preincubated for 5 mins followed by substrate addition measured after 5 mins by microplate reader analysis. Further details: species or system Saccharomyces cerevisiae.
Data set [13] can be described thus: Inhibition of porcine alpha-amylase using starch as substrate preincubated for 10 mins followed by substrate addition and measured after 10 mins by microplate reader analysis. Further details: species or system Sus scrofa.
A short description of data set [14]: Inhibition of almond beta-glucosidase using PNPG as substrate preincubated for 10 mins followed by substrate addition and measured after 20 mins by spectrophotometric analysis. Further details: species or system Prunus dulcis.
Data set [15] in a line: Inhibition of saccharomyces cerevisiae alpha-glucosidase using PNP-G as substrate by spectrophotometric analysis.
Data set [16] in a line: Cytotoxicity against MDCK cells. It counts as toxicity, cell-based, Canis lupus familiaris. Conditions: dog.
Data set [17] is described as follows: Inhibition of rat intestinal maltase using maltose as substrate incubated for 15 mins by spectometric analysis.
Data set [18] in a line: Inhibition of rat intestinal sucrase using sucrose as substrate incubated for 15 mins by spectometric analysis.
The target in a further data set is T1, Alpha amylase (Homo sapiens, UniProt P0DUB6).
T1 sequence (P0DUB6 whole entry): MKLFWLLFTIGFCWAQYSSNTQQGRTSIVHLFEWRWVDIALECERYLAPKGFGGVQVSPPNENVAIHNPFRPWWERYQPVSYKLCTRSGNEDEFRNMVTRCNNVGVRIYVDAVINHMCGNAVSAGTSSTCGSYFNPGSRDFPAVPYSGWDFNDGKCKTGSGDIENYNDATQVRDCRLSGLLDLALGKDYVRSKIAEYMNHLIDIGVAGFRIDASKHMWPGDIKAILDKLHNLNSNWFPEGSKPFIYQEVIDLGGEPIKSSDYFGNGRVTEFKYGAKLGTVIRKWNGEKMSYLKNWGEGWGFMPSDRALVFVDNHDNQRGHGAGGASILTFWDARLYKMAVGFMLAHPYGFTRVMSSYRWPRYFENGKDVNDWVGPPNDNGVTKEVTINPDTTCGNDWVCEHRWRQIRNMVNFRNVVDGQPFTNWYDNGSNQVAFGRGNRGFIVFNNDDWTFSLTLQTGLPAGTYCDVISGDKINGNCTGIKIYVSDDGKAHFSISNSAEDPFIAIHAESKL
The data set can be described thus: Inhibition of human salivary alpha-amylase using starch as substrate preincubated for 5 mins followed by substrate addition for 8 mins and incubated with iodide potassium for another 5 mins. Also on record: species or system Saliva.

`CC(C)=CCC/C(C)=C/C=O` [CITRAL] gave an IC50 in data set [1] of 120 µM.

On to `C[C@H]1O[C@H](O[C@H]2[C@H](O)[C@@H](O)[C@@H](O[C@H]3[C@H](O)[C@@H](O)C(O)O[C@@H]3CO)O[C@@H]2CO)[C@H](O)[C@@H](O)[C@@H]1N[C@H]1C=C(CO)[C@@H](O)[C@H](O)[C@H]1O` (stereo not given in full) [ACARBOSE], for which the IC50 in data set [2] amounted to 15 µM; in data set [3] it was 38 µM. The inhibition in the data set with Saccharomyces cerevisiae turned out to be 56.5%.

On to `CC1(C)CCC[C@]2(C)c3cc(O)c(O)cc3C(=O)C[C@@H]12`, for which the IC50 is 0.85 µM in [4]; 1.6 µM in data set [5]; 12 µM in data set [6]; 11 µM in [7]; 20 µM in data set [8]; 6.8 µM in data set [9]. In addition, the half-maximal inhibitory concentration (IC50) stood at 14 µM in data set [10] and 30 µM in data set [11].

On to `C=C1CC[C@@H]2[C@](C)(CO)[C@H](O)CC[C@@]2(C)[C@@H]1C/C=C1/C(=O)OC[C@H]1O` [ANDROGRAPHOLIDE], for which the 50% inhibitory concentration (IC50) in [12] and in [13] was 11 mg/mL (≈ 31.4 mM) throughout.

In the case of `O[C@@H]1[C@H](O)Cn2c(nc3ccccc32)[C@@H]1O`, the half-inhibitory concentration (IC50) in data set [14] is 5 µM.

In data set [15], `COc1ccc(-c2oc3cc(O[C@H]4O[C@H](CO)[C@@H](O)[C@H](O)[C@H]4O)c(OC)c(O)c3c(=O)c2O)cc1CCC(C)COC(C)=O` (stereo not given in full) yielded an IC50 of 66 µM.

Turning to `C/C=C/Oc1cc(C=O)ccc1O`, the IC50 in [16] was more than 600 µM.

In the case of `Oc1cc(O)c2c(c1)O[C@H](c1ccc(O)c(O)c1)[C@@H](O)C2` [CIANIDANOL], the figures for the IC50 in data set [17] and in data set [18] were 1350 µM and 2490 µM, respectively.

For `COC(=O)/C=C/c1ccc(OC/C=C(\C)CO)cc1`, the IC50 on Alpha amylase was 600 µM.
